From PMC6720825, “Thiol-ene "Click" Synthesis and Pharmacological Evaluation of C-Glycoside sp^2-Iminosugar Glycolipids” (Molecules, 2019)
Entries after “also recorded” stand apart in the source; their conditions may differ. Read-outs that look alike come from different tables or passages of the source.

Columns and labels:
[1] = tested on: human lung fibroblast MRC-5 cells; assay: Cellular toxicity (MTT assay) in MRC-5 cells; type: cell-based; details: for EC50: Homo sapiens, MRC5, MTT assay, 72 h at 37 °C; for SI (EC50 MRC-5/EC50 parasite): Selectivity Index
[2] = tested on: THP-1 cells; assay: Cellular toxicity (MTT assay) in THP-1 cells; type: cell-based, human; details: for EC50: Homo sapiens, THP-1, MTT assay, 72 h at 37 °C; for SI (EC50 THP-1/EC50 parasite): Selectivity Index
Experimental: Human myelomonocytic cell line THP-1 was grown at 37 °C and 5% CO2 in RPMI-1640 supplemented with 10% iFBS, 2 mM […], 100 U/mL penicillin, and 100 μg/mL streptomycin; 3 × 10^4 cells/well in 96-well plates were differentiated to macrophages with 20 ng/mL of PMA treatment for 48 h followed by 24 h of culture in fresh medium. Cellular toxicity of all compounds was determined using the colorimetric MTT-based assay after incubation at 37 °C for 72 h in the presence of increasing concentrations of compounds [71].

[3] = tested on: intracellular amastigotes of Leishmania donovani MHOM/ET/67/HU3 line; assay: Susceptibility of intracellular Leishmania amastigotes (luciferase assay); type: cell-based; details: L. donovani in THP-1 macrophages, 72 h at 37 °C, threshold 20 μM
Experimental: The leishmanicidal activity of all the synthesized sp^2-iminosugar C-glycosides (1–12) was evaluated against intracellular amastigotes of Leishmania donovani MHOM/ET/67/HU3 line with luciferase gene integrated into the parasite genome. […] A strong influence of the nature of the lipid chain α-linked to the pseudoanomeric position of the bicyclic core in the sp^2-IGLs was inferred from the corresponding data. […] The longer-chain sp^2-IGLs 2 and 8 were over the 20 μM concentration threshold in this assay. In the sulfone series, the results evidenced some disparity between the ONJ and OGJ epimers.
Macrophage-differentiated THP-1 cells, which are considered a suitable model for human macrophages, were plated at a density of 3 × 10^4 or 3 × 10^5 macrophages/well in 96-well white polystyrene microplates or 24-well tissue culture chamber slides, respectively, and were infected at a macrophage/parasite ratio of 1:10 with L. donovani promastigotes. Twenty-four hours after infection at 35 °C and 5% CO2, extracellular parasites were removed by washing with serum-free medium. Infected cell cultures were then incubated at different compound concentrations in RPMI 1640 medium plus 10% iFBS at 37 °C with 5% CO2 for 72 h. To determine the susceptibility of L. donovani LUC amastigotes, infected macrophages maintained in 96-well plates were lysed and then luminescence intensity was measured as indicative of the intracellular parasite growth, using the Luciferase Assay System Kit (Promega, Madison, Wis.) according to the instructions of the supplier. To determine the susceptibility of L. donovani HU3 amastigotes, infected macrophages maintained in 24-well plates were fixed for 30 min at 4 °C with 2.5% paraformaldehyde phosphate-buffered saline (PBS; 1.2 mM KH2PO4, 8.1 mM Na2HPO4, 130 mM NaCl, and 2.6 mM KCl adjusted to pH 7) and permeabilized with 0.1% Triton X-100 in PBS for 30 min. Intracellular parasites and macrophages were detected by nuclear staining with ProLong® Gold antifade reagent plus DAPI (Invitrogen). The percentage infection and mean number of amastigotes from infected macrophages were determined with 200 macrophages/well.

[4] = target: T1, α-Glcase (Yeast Maltase) (Saccharomyces cerevisiae, UniProt P53341); assay: Glycosidase inhibition (Ki), yeast maltase α-glucosidase; type: biochemical
T1 construct: purchased
T1 sequence (P53341 whole entry): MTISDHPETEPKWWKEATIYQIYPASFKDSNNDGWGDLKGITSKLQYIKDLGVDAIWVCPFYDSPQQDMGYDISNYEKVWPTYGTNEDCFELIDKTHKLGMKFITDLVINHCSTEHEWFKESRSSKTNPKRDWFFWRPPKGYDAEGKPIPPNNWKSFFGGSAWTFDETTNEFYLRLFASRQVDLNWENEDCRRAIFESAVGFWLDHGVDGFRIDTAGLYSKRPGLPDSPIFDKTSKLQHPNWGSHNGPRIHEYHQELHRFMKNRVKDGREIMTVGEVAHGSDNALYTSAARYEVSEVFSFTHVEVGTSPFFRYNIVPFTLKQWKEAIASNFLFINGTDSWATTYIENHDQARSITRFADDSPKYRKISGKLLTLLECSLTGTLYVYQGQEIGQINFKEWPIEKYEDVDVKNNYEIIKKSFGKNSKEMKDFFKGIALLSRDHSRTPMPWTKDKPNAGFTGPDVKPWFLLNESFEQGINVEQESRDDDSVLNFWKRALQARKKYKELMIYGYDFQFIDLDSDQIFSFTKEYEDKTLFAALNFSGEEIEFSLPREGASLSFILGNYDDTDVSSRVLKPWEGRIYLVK
Source text: The inhibitory properties of the new sp^2-IGLs 1–12 and the α-C-allyl ONJ and OGJ glycosides 15, and 24 were examined against a panel of commercial glycosidases that included the α-glucosidases maltase (Saccharomyces cerevisiae) and amyloglucosidase (Aspergillus niger), the β-glucosidases from almonds and bovine liver, α-galactosidase from green coffee beans, β-galactosidase from Escherichia coli, α-mannosidase from Jack beans, and β-mannosidase from Helix pomatia. The corresponding inhibition constant (Ki) values are collected in Table 1.
Inhibition constant (Ki) values were determined by spectrophotometrically measuring the residual hydrolytic activities of the glycosidases against the respective o- (for β-galactosidase from E. coli) or p-nitrophenyl α- or β-D-glycopyranoside (for other glycosidases) in the presence of the iminosugars. Each assay was performed in phosphate buffer or phosphate-citrate buffer (for α- or β-mannosidase and amyloglucosidase) at the optimal pH for the enzymes. The reactions were initiated by addition of the enzyme to a solution of the substrate in the absence or presence of various inhibitor concentrations. The mixture was incubated for 10–30 min at 37 °C or 55 °C (for amyloglucosidase) and the reaction was quenched by addition of 1 M Na2CO3. Reaction times were appropriate to obtain 10–20% conversion of the substrate in order to achieve linear rates. The absorbance of the resulting mixture was determined at 405 nm. Approximate value of Ki was determined from the slope of Dixon plots using a fixed concentration of substrate (around the Km value for the different glycosidases) and various concentrations of inhibitor. Full Ki determinations and enzyme inhibition mode were determined from the slope of Lineweaver–Burk plots and double reciprocal analysis. Representative examples of Dixon and Lineweaver–Burk plots are shown in the Supplementary materials.

[5] = tested on: human solid tumor cell lines A549, SW1573 (lung), HBL-100, T-47D (breast), HeLa (cervix), WiDr (colon); assay: Antiproliferative activity (SRB assay) against a panel of six human solid tumor cell lines; type: cell-based; details: for GI50: read-out: GI50 (concentration to achieve 50% growth inhibition), 48 h, tested 1 to 100 μM, only values below 100 μM significant; for GI50 (concentration to achieve 50% growth inhibition): 48 h, tested 1 to 100 μM, only values below 100 μM significant
Experimental: The antiproliferative activity of all the sp^2-iminosugar C-glycosides (1–12) was evaluated against a panel of six representative human solid tumor cell lines including lung (A549 and SW1573), breast (HBL-100, T-47D), cervix (HeLa), and colon (WiDr).
All reagents were used as purchased from commercial suppliers without further purification. The human solid tumor cell lines A549 (lung), HBL-100 (breast), HeLa (cervix), SW1573 (lung), T-47D (breast), and WiDr (colon) were used in this study. These cell lines were a kind gift from Prof. G. J. Peters (VU Medical Center, Amsterdam, The Netherlands).
Cells were inoculated onto 96-well microtiter plates in a volume of 100 μL per well at densities of 2500 (A549, HBL-100, HeLa, and SW1573) and 5000 (T-47D and WiDr) cells per well, based on their doubling times. Compounds were initially dissolved in DMSO at 400 times the desired final maximum test concentration. Control cells were exposed to an equivalent concentration of DMSO (0.25% v/v, negative control). Each agent was tested in triplicate at different dilutions in the range of 1 to 100 μM. The drug treatment started on day 1 after plating. Drug incubation times were 48 h, after which cells were precipitated with 25 μL ice-cold TCA (50% w/v) and fixed for 60 min at 4 °C. Then the SRB assay was performed. The optical density (OD) of each well was measured at 530 nm, using BioTek’s PowerWave XS Absorbance Microplate Reader. Values were corrected for background OD from wells only containing medium. The antiproliferative activity for each compound, expressed as GI50 values, was calculated according to NCI formulas.

[6] = mean ± SD, three independent determinations, competitive inhibition, read-out: Ki, α-Glcase (Yeast Maltase)
[7] = mean ± SD, three independent determinations, competitive inhibition

Row | SMILES | EC50 [1] [µM] | SI (EC50 MRC-5/EC50 parasite) [1] | EC50 [2] [µM] | SI (EC50 THP-1/EC50 parasite) [2] | EC50 [3] [µM] | Ki [4, 6] [µM] | GI50 [5] [µM] | Ki, α-Glcase (Yeast Maltase) [4, 7] | Ki [4] [µM] | GI50 (concentration to achieve 50% growth inhibition) [5]
1 | C[C@@H]1[C@H](O)[C@@H](C)/C=C/C=C/C=C/C=C/C=C/C=C/C=C/[C@H](O[C@@H]2O[C@H](C)[C@@H](O)[C@H](N)[C@@H]2O)C[C@@H]2O[C@](O)(C[C@@H](O)C[C@@H](O)[C@H](O)CC[C@@H](O)C[C@@H](O)CC(=O)O[C@H]1C)C[C@H](O)[C@H]2C(=O)O [AmB, amphotericin B, reference compound] | 16.9 ± 2.44 | 112.87 | 20.1 ± 4.43 | 133.80 | 0.15 ± 0.01 | – | – | – | – | –
2 | CCCCCCCCSCCC[C@@H]1[C@H](O)[C@@H](O)[C@H](O)[C@H]2COC(=O)N12 [Compound 1, (1R)-1-[3-(Octylthio)propyl)-5N,6O-oxomethylidene-1-deoxynojirimycin] | 32.2 ± 1.03 | 4.19 | 131 ± 4.29 | 17.06 | 7.68 ± 0.29 | 0.34 ± 0.02 | 14 to 54 | – | – | –
3 | CCCCCCCCCCCCSCCC[C@@H]1[C@H](O)[C@@H](O)[C@H](O)[C@H]2COC(=O)N12 [Compound 2, (1R)-1-[3-(Dodecylthio)propyl]-5N,6O-oxomethylidene-1-deoxynojirimycin] | 19.9 ± 2.76 | < 1 | 72.2 ± 4.18 | < 3.61 | > 20 | 0.74 ± 0.03 | 9.6 to 19 | nanomolar competitive inhibitor | – | –
4 | CC(C)(C)OC(=O)NCCSCCC[C@@H]1[C@H](O)[C@@H](O)[C@H](O)[C@H]2COC(=O)N12 [Compound 3, (1R)-1-[3-(N-tert-Butoxycarbonylaminoethylthio)propyl]-5N,6O-oxomethylidene-1-deoxynojirimycin] | 134 ± 6.02 | 8.95 | > 200 | – | 15 ± 1.28 | – | > 100 | – | 0.28 ± 0.02 | did not show any significant antiproliferative activity; also recorded: out of range; also recorded: did not display significant antiproliferative activity
5 | CCCCCCCCS(=O)(=O)CCC[C@@H]1[C@H](O)[C@@H](O)[C@H](O)[C@H]2COC(=O)N12 [Compound 4, (1R)-1-[3-(Octylsulfonyl)propyl]-5N,6O-oxomethylidene-1-deoxynojirimycin] | 189 ± 15.6 | < 9.45 | > 200 | – | > 20 | 2.6 ± 0.3 | > 100 | – | – | –
6 | CCCCCCCCCCCCS(=O)(=O)CCC[C@@H]1[C@H](O)[C@@H](O)[C@H](O)[C@H]2COC(=O)N12 [Compound 5, (1R)-1-[3-(Dodecylsulfonyl)propyl]-5N,6O-oxomethylidene-1-deoxynojirimycin] | 71.5 ± 3.75 | 6.25 | 100 ± 10.9 | 8.78 | 11.4 ± 5.08 | 2.5 ± 0.2 | 26 to 82 | – | – | –
7 | CC(C)(C)OC(=O)NCCS(=O)(=O)CCC[C@@H]1[C@H](O)[C@@H](O)[C@H](O)[C@H]2COC(=O)N12 [Compound 6, (1R)-1-[3-(N-tert-Butoxycarbonylaminoethylsulfonyl)propyl]-5N,6O-oxomethylidene-1-deoxynojirimycin] | 155 ± 3.1 | < 7.76 | > 200 | – | > 20 | 0.75 ± 0.02 | > 100 | – | – | did not show any significant antiproliferative activity
8 | CCCCCCCCCCCCSCCC[C@@H]1[C@H](O)[C@@H](O)[C@@H](O)[C@H]2COC(=O)N12 [Compound 8, (1R)-1-[3-(Dodecylthio)propyl]-5N,6O-oxomethylidene-1-deoxygalactonojirimycin] | 32.1 ± 1.94 | < 1.60 | 68.3 ± 3.04 | < 3.42 | > 20 | – | 9.6 to 19 | did not inhibit and n.i. | – | –
9 | CCCCCCCCS(=O)(=O)CCC[C@@H]1[C@H](O)[C@@H](O)[C@@H](O)[C@H]2COC(=O)N12 [Compound 10, (1R)-1-[3-(Octylsulfonyl)propyl]-5N,6O-oxomethylidene-1-deoxygalactonojirimycin] | 185 ± 21.2 | 13.40 | > 200 | – | 13.8 ± 1.72 | – | > 100 | n.i. | – | –
10 | CCCCCCCCCCCCS(=O)(=O)CCC[C@@H]1[C@H](O)[C@@H](O)[C@@H](O)[C@H]2COC(=O)N12 [Compound 11, (1R)-1-[3-(Dodecylsulfonyl)propyl]-5N,6O-oxomethylidene-1-deoxygalactonojirimycin] | 162 ± 20.2 | < 8.10 | > 200 | – | > 20 | – | 26 to 82 | n.i. | – | –
11 | CC(C)(C)OC(=O)NCCS(=O)(=O)CCC[C@@H]1[C@H](O)[C@@H](O)[C@@H](O)[C@H]2COC(=O)N12 [Compound 12, (1R)-1-[3-(N-tert-Butoxycarbonylaminoethylsulfonyl)propyl]-5N,6O-oxomethylidene-1-deoxygalactonojirimycin] | 182 ± 14.9 | < 9.08 | > 200 | – | > 20 | – | > 100 | n.i. | – | did not show any significant antiproliferative activity
